Measurements taken from patent US9868772B2 (INDIANA UNIVERSITY RESEARCH AND TECHNOLOGY CORPORATION, priority 2012, dated 2018).
Numbered stars: 1 amine (or outer) side, 2 acyl side, 3 side chain; on linkers, the order of the positions; unused ones are H or OH. Square brackets hold non-standard residues; d marks the D form. Side chains are listed from the residue outwards. Peptide text beside a SMILES is read from it. * marks the point of attachment. γGlu = O=C(O)[C@H](CCC(=O)[*:2])N[*:1]; Desaminotyrosyl = O=C(CCc1ccc(O)cc1)*; Palmitoyl = CCCCCCCCCCCCCCCC(=O)*; 2Thi = N[C@@H](Cc1cccs1)C(=O)O

Legend:
Assay in all cases: cAMP induction, firefly luciferase reporter assay in HEK293 cells co-transfected with receptor
Type in all cases: cell-based
glucagon receptor = biological target: T1, glucagon receptor (Homo sapiens, UniProt P47871)
T1 construct: expressed in transfected cells; host or cells: HEK293
T1 sequence (P47871 26-477): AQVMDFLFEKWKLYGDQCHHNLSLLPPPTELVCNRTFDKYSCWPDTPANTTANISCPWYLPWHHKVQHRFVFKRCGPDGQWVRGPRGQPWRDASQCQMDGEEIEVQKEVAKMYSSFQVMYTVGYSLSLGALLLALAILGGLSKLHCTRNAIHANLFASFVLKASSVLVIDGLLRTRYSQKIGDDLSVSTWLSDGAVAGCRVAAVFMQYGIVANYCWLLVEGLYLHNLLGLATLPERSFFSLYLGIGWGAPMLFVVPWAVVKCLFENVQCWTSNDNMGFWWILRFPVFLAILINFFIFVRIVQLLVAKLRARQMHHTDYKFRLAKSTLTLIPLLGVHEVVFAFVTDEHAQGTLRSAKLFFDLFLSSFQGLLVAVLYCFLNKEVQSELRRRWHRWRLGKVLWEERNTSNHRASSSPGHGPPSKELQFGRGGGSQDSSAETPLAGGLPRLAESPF
Method: (§1) The ability of glucagon analogs to induce cAMP was measured in a firefly luciferase-based reporter assay. […] At the end of the incubation 100 microliters of LucLite luminescence substrate reagent (Perkin-Elmer, Wellesley, Mass.) were added to each well. […] Effective 50% concentrations were calculated by using Origin software (OriginLab, Northampton, Mass.

GLP-1 receptor = biological target: T2, GLP-1 receptor (Homo sapiens, UniProt P43220)
T2 construct: expressed in transfected cells; host or cells: HEK293
T2 sequence (P43220 24-463): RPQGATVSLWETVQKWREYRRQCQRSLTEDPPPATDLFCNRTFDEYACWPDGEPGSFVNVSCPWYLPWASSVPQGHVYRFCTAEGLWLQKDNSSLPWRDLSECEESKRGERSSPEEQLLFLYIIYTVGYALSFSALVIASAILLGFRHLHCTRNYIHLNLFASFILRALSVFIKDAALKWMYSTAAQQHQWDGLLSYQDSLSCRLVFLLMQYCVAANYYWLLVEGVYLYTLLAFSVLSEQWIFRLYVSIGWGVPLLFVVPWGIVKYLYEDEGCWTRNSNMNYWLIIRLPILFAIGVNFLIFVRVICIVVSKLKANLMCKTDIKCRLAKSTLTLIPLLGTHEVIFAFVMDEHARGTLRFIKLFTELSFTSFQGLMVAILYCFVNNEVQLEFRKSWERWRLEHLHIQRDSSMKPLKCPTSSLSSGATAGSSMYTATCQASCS
Method: as §1

GIP receptor = biological target: T3, GIP receptor (Homo sapiens, UniProt P48546)
T3 construct: expressed in transfected cells; host or cells: HEK293
T3 sequence (P48546 22-466): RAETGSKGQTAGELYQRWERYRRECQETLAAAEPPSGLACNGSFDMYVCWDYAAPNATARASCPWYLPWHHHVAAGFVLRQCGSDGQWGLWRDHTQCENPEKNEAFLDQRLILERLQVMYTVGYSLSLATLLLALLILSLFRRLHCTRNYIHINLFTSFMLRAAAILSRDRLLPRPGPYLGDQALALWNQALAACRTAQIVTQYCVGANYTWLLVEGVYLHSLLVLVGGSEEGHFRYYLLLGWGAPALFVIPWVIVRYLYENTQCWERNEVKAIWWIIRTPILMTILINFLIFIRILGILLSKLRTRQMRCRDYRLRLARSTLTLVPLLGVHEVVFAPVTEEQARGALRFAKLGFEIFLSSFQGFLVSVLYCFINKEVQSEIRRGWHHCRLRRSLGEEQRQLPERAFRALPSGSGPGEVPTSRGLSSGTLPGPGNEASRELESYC
Method: as §1

[1] = Table 2, analogs of SEQ ID NO: 10
[2] = Table 1, analogs of SEQ ID NO: 37

Molecule | EC50 (glucagon receptor; [1]) [nM] | EC50 (GLP-1 receptor; [1]) [nM] | EC50 (GIP receptor; [1]) [nM] | EC50 (glucagon receptor; [2]) [nM] | EC50 (GLP-1 receptor; [2]) [nM] | EC50 (GIP receptor; [2]) [nM]
CCCCCCCCCCCCCCCC(=O)N[C@@H](CCC(=O)NCCCC[C@H](NC(=O)[C@H](CC(=O)O)NC(=O)[C@H](CO)NC(=O)[C@@H](NC(=O)[C@H](Cc1ccccc1)NC(=O)[C@@H](NC(=O)CNC(=O)[C@H](CCC(=O)O)NC(=O)[C@H](C)NC(=O)[C@@H](Cc1c[nH]cn1)NC(C)=O)[C@@H](C)O)[C@@H](C)O)C(=O)N[C@@H](CO)C(=O)N[C@@H](CCCCN)C(=O)N[C@@H](Cc1ccc(O)cc1)C(=O)N[C@@H](CC(C)C)C(=O)N[C@@H](CC(=O)O)C(=O)N[C@@H](CCC(=O)O)C(=O)N[C@@H](CCCNC(=N)N)C(=O)N[C@@H](C)C(=O)N[C@@H](C)C(=O)N[C@@H](CCC(N)=O)C(=O)N[C@@H](CC(=O)O)C(=O)N[C@@H](Cc1ccccc1)C(=O)N[C@H](C(=O)N[C@@H](CCC(N)=O)C(=O)N[C@@H](Cc1c[nH]c2ccccc12)C(=O)N[C@@H](CC(C)C)C(=O)N[C@@H](CC(C)C)C(=O)N[C@@H](CCC(=O)O)C(=O)NCC(=O)NCC(=O)N1CCC[C@H]1C(=O)N[C@@H](CO)C(=O)N[C@@H](CO)C(=O)NCC(=O)N[C@@H](C)C(=O)N1CCC[C@H]1C(=O)N1CCC[C@H]1C(=O)N1CCC[C@H]1C(=O)N[C@@H](CO)C(N)=O)C(C)C)C(=O)O [compound 148] | 0.178 | 0.002 | 0.007 | – | – | –
Ac-[dY]AQGTFTSDYSKYLDERAAQDFVQWLLEGGPSSGAPPPSK([γGlu-γGlu-Palmitoyl])G-NH2 [compound 149] | 0.012 | 0.002 | 0.008 | – | – | –
CCCCCCCCCCCCCCCC(=O)N[C@@H](CCC(=O)NCCCC[C@H](NC(=O)[C@H](CC(=O)O)NC(=O)[C@H](CO)NC(=O)[C@@H](NC(=O)[C@H](Cc1ccccc1)NC(=O)[C@@H](NC(=O)CNC(=O)[C@H](CCC(N)=O)NC(=O)[C@H](C)NC(=O)[C@H](Cc1cccs1)NC(C)=O)[C@@H](C)O)[C@@H](C)O)C(=O)N[C@@H](CO)C(=O)N[C@@H](CCCCN)C(=O)N[C@@H](Cc1ccc(O)cc1)C(=O)N[C@@H](CC(C)C)C(=O)N[C@@H](CC(=O)O)C(=O)N[C@@H](CCC(=O)O)C(=O)N[C@@H](CCCNC(=N)N)C(=O)N[C@@H](C)C(=O)N[C@@H](C)C(=O)N[C@@H](CCC(N)=O)C(=O)N[C@@H](CC(=O)O)C(=O)N[C@@H](Cc1ccccc1)C(=O)N[C@H](C(=O)N[C@@H](CCC(N)=O)C(=O)N[C@@H](Cc1c[nH]c2ccccc12)C(=O)N[C@@H](CC(C)C)C(=O)N[C@@H](CC(C)C)C(=O)N[C@@H](CCC(=O)O)C(=O)NCC(=O)NCC(=O)N1CCC[C@H]1C(=O)N[C@@H](CO)C(=O)N[C@@H](CO)C(=O)NCC(=O)N[C@@H](C)C(=O)N1CCC[C@H]1C(=O)N1CCC[C@H]1C(=O)N1CCC[C@H]1C(=O)N[C@@H](CO)C(N)=O)C(C)C)C(=O)O [compound 21] | – | – | – | 0.006 | 0.026 | 0.04
CCCCCCCCCCCCCCCC(=O)N[C@@H](CCC(=O)N[C@@H](CCC(=O)NCCCC[C@H](NC(=O)[C@H](CO)NC(=O)[C@@H]1CCCN1C(=O)[C@@H]1CCCN1C(=O)[C@@H]1CCCN1C(=O)[C@H](C)NC(=O)CNC(=O)[C@H](CO)NC(=O)[C@H](CO)NC(=O)[C@@H]1CCCN1C(=O)CNC(=O)CNC(=O)[C@H](CCC(=O)O)NC(=O)[C@H](CC(C)C)NC(=O)[C@H](CC(C)C)NC(=O)[C@H](Cc1c[nH]c2ccccc12)NC(=O)[C@H](CCC(N)=O)NC(=O)[C@@H](NC(=O)[C@H](Cc1ccccc1)NC(=O)[C@H](CC(=O)O)NC(=O)[C@H](CCC(N)=O)NC(=O)[C@H](C)NC(=O)[C@H](C)NC(=O)[C@H](CCCNC(=N)N)NC(=O)[C@H](CCC(=O)O)NC(=O)[C@H](CC(=O)O)NC(=O)[C@H](CC(C)C)NC(=O)[C@H](Cc1ccc(O)cc1)NC(=O)[C@H](CCCCN)NC(=O)[C@H](CO)NC(=O)[C@H](Cc1ccc(O)cc1)NC(=O)[C@H](CC(=O)O)NC(=O)[C@H](CO)NC(=O)[C@@H](NC(=O)[C@H](Cc1ccccc1)NC(=O)[C@@H](NC(=O)CNC(=O)[C@H](CCC(N)=O)NC(=O)[C@H](C)NC(=O)CCc1ccc(O)cc1)[C@@H](C)O)[C@@H](C)O)C(C)C)C(=O)NCC(N)=O)C(=O)O)C(=O)O [compound 160] (Desaminotyrosyl-AQGTFTSDYSKYLDERAAQDFVQWLLEGGPSSGAPPPSK([γGlu-γGlu-Palmitoyl])G-NH2) | 0.049 | 0.022 | 0.086 | – | – | –
CCCCCCCCCCCCCCCC(=O)N[C@@H](CCC(=O)NCCCC[C@H](NC(=O)[C@H](CC(=O)O)NC(=O)[C@H](CO)NC(=O)[C@@H](NC(=O)[C@H](Cc1ccccc1)NC(=O)[C@@H](NC(=O)CNC(=O)[C@H](CCC(=O)O)NC(=O)[C@H](C)NC(=O)CCc1ccc(O)cc1)[C@@H](C)O)[C@@H](C)O)C(=O)N[C@@H](CO)C(=O)N[C@@H](CCCCN)C(=O)N[C@@H](Cc1ccc(O)cc1)C(=O)N[C@@H](CC(C)C)C(=O)N[C@@H](CC(=O)O)C(=O)N[C@@H](CCC(=O)O)C(=O)N[C@@H](CCCNC(=N)N)C(=O)N[C@@H](C)C(=O)N[C@@H](C)C(=O)N[C@@H](CCC(N)=O)C(=O)N[C@@H](CC(=O)O)C(=O)N[C@@H](Cc1ccccc1)C(=O)N[C@H](C(=O)N[C@@H](CCC(N)=O)C(=O)N[C@@H](Cc1c[nH]c2ccccc12)C(=O)N[C@@H](CC(C)C)C(=O)N[C@@H](CC(C)C)C(=O)N[C@@H](CCC(=O)O)C(=O)NCC(=O)NCC(=O)N1CCC[C@H]1C(=O)N[C@@H](CO)C(=O)N[C@@H](CO)C(=O)NCC(=O)N[C@@H](C)C(=O)N1CCC[C@H]1C(=O)N1CCC[C@H]1C(=O)N1CCC[C@H]1C(=O)N[C@@H](CO)C(N)=O)C(C)C)C(=O)O [compound 145] | 3.73 | 0.003 | 0.003 | – | – | –
CCCCCCCCCCCCCCCC(=O)N[C@@H](CCC(=O)NCCCC[C@H](NC(=O)[C@H](CC(=O)O)NC(=O)[C@H](CO)NC(=O)[C@@H](NC(=O)[C@H](Cc1ccccc1)NC(=O)[C@@H](NC(=O)CNC(=O)[C@H](CCC(N)=O)NC(=O)[C@@H]1CCCN1C(=O)[C@@H](N)Cc1cccs1)[C@@H](C)O)[C@@H](C)O)C(=O)N[C@@H](CO)C(=O)N[C@@H](CCCCN)C(=O)N[C@@H](Cc1ccc(O)cc1)C(=O)N[C@@H](CC(C)C)C(=O)N[C@@H](CC(=O)O)C(=O)N[C@@H](CCC(=O)O)C(=O)N[C@@H](CCCNC(=N)N)C(=O)N[C@@H](C)C(=O)N[C@@H](C)C(=O)N[C@@H](CCC(N)=O)C(=O)N[C@@H](CC(=O)O)C(=O)N[C@@H](Cc1ccccc1)C(=O)N[C@H](C(=O)N[C@@H](CCC(N)=O)C(=O)N[C@@H](Cc1c[nH]c2ccccc12)C(=O)N[C@@H](CC(C)C)C(=O)N[C@@H](CC(C)C)C(=O)N[C@@H](CCC(=O)O)C(=O)NCC(=O)NCC(=O)N1CCC[C@H]1C(=O)N[C@@H](CO)C(=O)N[C@@H](CO)C(=O)NCC(=O)N[C@@H](C)C(=O)N1CCC[C@H]1C(=O)N1CCC[C@H]1C(=O)N1CCC[C@H]1C(=O)N[C@@H](CO)C(N)=O)C(C)C)C(=O)O [compound 33] (H-[2Thi]PQGTFTSDK([γGlu-Palmitoyl])SKYLDERAAQDFVQWLLEGGPSSGAPPPS-NH2) | – | – | – | 0.121 | 0.005 | 0.43
CCCCCCCCCCCCCCCC(=O)N[C@@H](CCC(=O)NCCCC[C@H](NC(=O)[C@H](CC(=O)O)NC(=O)[C@H](CO)NC(=O)[C@@H](NC(=O)[C@H](Cc1ccccc1)NC(=O)[C@@H](NC(=O)CNC(=O)[C@H](CCC(N)=O)NC(=O)C(C)(C)NC(=O)[C@@H](N)Cc1c[nH]cn1)[C@@H](C)O)[C@@H](C)O)C(=O)N[C@@H](CO)C(=O)N[C@@H](CCCCN)C(=O)N[C@@H](Cc1ccc(O)cc1)C(=O)N[C@@H](CC(C)C)C(=O)N[C@@H](CC(=O)O)C(=O)N[C@@H](CCC(=O)O)C(=O)N[C@@H](CCCNC(=N)N)C(=O)N[C@@H](C)C(=O)N[C@@H](C)C(=O)N[C@@H](CCC(N)=O)C(=O)N[C@@H](CC(=O)O)C(=O)N[C@@H](Cc1ccccc1)C(=O)N[C@H](C(=O)N[C@@H](CCC(N)=O)C(=O)N[C@@H](Cc1c[nH]c2ccccc12)C(=O)N[C@@H](CC(C)C)C(=O)N[C@@H](CC(C)C)C(=O)N[C@@H](CC(=O)O)C(=O)NCC(=O)NCC(=O)N1CCC[C@H]1C(=O)N[C@@H](CO)C(=O)N[C@@H](CO)C(=O)NCC(=O)N[C@@H](C)C(=O)N1CCC[C@H]1C(=O)N1CCC[C@H]1C(=O)N1CCC[C@H]1C(=O)N[C@@H](CO)C(N)=O)C(C)C)C(=O)O [compound 10] | – | – | – | 0.005 | 0.005 | –
